{"source": "paper PMC5760527", "about": "“Connexin 43 Hemichannel as a Novel Mediator of Sterile and Infectious Inflammatory Diseases” (Scientific Reports, 2018)", "key": {"[1]": {"tested_on": "Cx43 GJ and hemichannel activities", "conditions": "cited from earlier work", "excerpt": "The establishment of HMGB1 as a critical mediator of various inflammatory diseases has prompted an on-going search for endogenous and exogenous modulators of HMGB1 secretion. […] We thus evaluated the alteration of macrophage hemichannel activities in the absence or presence of Cx43 mimetic peptides previously shown to be capable of blocking Cx43 hemichannels. […] Because Cx43 GJ and hemichannels often co-exist in plasma membranes, a definitive elucidation of the functions of Cx43 GJ or hemichannels has been quite challenging. First, genetic deletion would eliminate both channels. Secondly, these two types of Cx channels are susceptible to a similar array of chemical blockers. Latel ..."}, "[2]": {"tested_on": "PKR phosphorylation", "conditions": "cited from earlier work", "excerpt": "(§1) The establishment of HMGB1 as a critical mediator of various inflammatory diseases has prompted an on-going search for endogenous and exogenous modulators of HMGB1 secretion."}, "[3]": {"tested_on": "HMGB1 secretion", "conditions": "cited from earlier work", "excerpt": "as §1"}, "[4]": {"tested_on": "Balb/c mice, polymicrobial sepsis (CLP)", "assay": "CLP-induced sepsis survival", "type": "in vivo", "conditions": "i.p., +6, +18 and +36 h post CLP, two weeks; for animal survival (in words): CLP, Balb/c mice; for survivors: saline 50%", "excerpt": "This study was approved and performed in accordance with the guidelines of the Institutional Animal Care and Use Committee of the Feinstein Institute for Medical Research, Manhasset, New York, USA (Animal Protocol #2008-033, Approval date: September 10, 2014). To evaluate the effect of various Cx43 mimetic peptides on sepsis lethality, a clinically relevant animal model of sepsis induced by cecal ligation and puncture (CLP) was employed. Briefly, the cecum of Balb/c mice was ligated at about 5 mm from the cecal tip, and then punctured once with a 22-gauge needle. GAP26, TAT-GAP19 or P5 peptides were administered intraperitoneally into mice at indicated doses and time points, and animal survival rates were monitored for up to 2 wks. The Kaplan-Meier method was used to compare the differences in mortality rates between groups."}, "[5]": {"tested_on": "macrophage Cx43 hemichannel activities, RAW 264.7 cells", "assay": "Lucifer Yellow dye uptake, hemichannel permeability, calcium-depleted", "type": "cell-based, murine", "conditions": "LPS 0.5 μg/ml, 16 h, LY 15 min, P < 0.05 versus +LPS", "excerpt": "Because connexon is the structural unit for both hemichannel (1 connexon) and gap junction (2 connexons from opposing cells), which are both permeable to similar molecular weight molecules, such as the Lucifer yellow (LY). Thus, the LY dye uptake could be used to determine the channel permeability of both hemichannel (as indicated by the rate of LY entry into the cells) and gap junction channels (as judged by the distance of intercellular LY diffusion). The LY dye uptake assay relied on the ability of this dye present in the extracellular milieu to cross the plasma membrane and became concentrated inside of the cell, which could be quantified by fluorescence microscopy. To determine the effects of Cx43 mimetic peptides on hemichannel permeability, RAW 264.7 cells were subjected to LPS stimulation (0.5 µg/ml, 16 h) before replacing the medium with fresh DMEM containing various Cx43 mimetic peptides, GAP26 (100 µM), TAT-GAP19 (200 µM) or P5 (20 µM). Following a brief incubation (15 min), EGTA (1 mM) was added to deplete free calcium prior to the addition of LY dye (1%). Fifteen min later, cells were fixed with 2% paraformaldehyde, and the number of LY-positive cells was counted. The ratio of LY-positive cells vs. total cell counts (DAPI staining) was used as the measurement of hemichannel permeability."}, "[6]": {"target": "T1, Cx43 EL1 peptide (Homo sapiens, UniProt P17302)", "T1 construct": "synthetic full-length Cx43 EL1 or EL2 peptide as judged by the Surface Plasmon Resonance Analysis", "T1 sequence (P17302 45-76 limits assumed)": "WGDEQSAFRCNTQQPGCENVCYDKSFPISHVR", "assay": "Surface Plasmon Resonance, Cx43 EL1 peptide", "type": "binding", "conditions": "Cx43 EL1 peptide"}}, "note": "pKd: −log10 of the molar value. Where no end group is shown, it is not given here.", "data": [{"molecule": "CC1(C)[C@@H](OC(=O)CCC(=O)O)CC[C@]2(C)[C@H]3C(=O)C=C4[C@@H]5C[C@@](C)(C(=O)O)CC[C@]5(C)CC[C@@]4(C)[C@]3(C)CC[C@@H]12", "note": "[carbenoxolone]", "values": [{"measurement": "blocking of Cx43 GJ and hemichannel activities", "setting": "[1]; no reference given", "value": "blocking Cx43 GJ and hemichannel activities"}, {"measurement": "endotoxin-induced PKR phosphorylation", "setting": "[2]", "value": "effectively prevented"}, {"measurement": "PKR-mediated HMGB1 secretion", "setting": "[3]", "value": "effectively prevented"}]}, {"molecule": "VCYDKSFPISHVR [GAP26, Cx43 mimetic peptide GAP26 (…), first extracellular loop]", "values": [{"measurement": "animal survival (in words)", "setting": "[4]", "value": "reproducibly increased animal survival rates"}, {"measurement": "interruption of GJ formation", "setting": "[1]; after prolonged application, no reference given", "value": "interruption of GJ formation after prolonged application"}, {"measurement": "inhibition of Cx43 hemichannel activities or gap junction formation", "setting": "[1]", "value": "inhibiting Cx43 hemichannel activities or gap junction formation"}, {"measurement": "effect on endotoxin-induced hemichannel activities (LY dye uptake)", "setting": "[5]; GAP26 100 μM", "value": "significant impairment of the endotoxin-induced elevation of hemichannel activities"}]}, {"molecule": "YGRKKRRQRRRK-QIEIKKFK [TAT-GAP19]", "values": [{"measurement": "survivors", "setting": "[4]; 15 mg/kg", "value": 60, "unit": "%"}, {"measurement": "survivors", "setting": "[4]; 120 mg/kg", "value": 20, "unit": "%"}, {"measurement": "animal survival (in words)", "setting": "[4]", "value": "decreased animal survival particularly when given at a comparable higher dose"}, {"measurement": "effect on LY dye uptake (hemichannel activities)", "setting": "[5]; TAT-GAP19 200 μM", "value": "elevated LY dye uptake"}]}, {"molecule": "QPGCEN [P4]", "values": [{"measurement": "pKd", "setting": "[6]", "value": 4.70}]}]}
